# According to ChEMBL document CHEMBL1275314, “Synthesis and biological evaluation of some 1,3,4-oxadiazole derivatives” (Eur J Med Chem, 2010):
# Experiments:
# Format in all cases: functional
# Klebsiella pneumoniae = assay: Antibacterial activity against Klebsiella pneumoniae after 3 to 4 days by serial plate dilution method
# Aspergillus fumigatus = assay: Antifungal activity against Aspergillus fumigatus NCIM 902 after 3 to 4 days by serial plate dilution method
# [1] = system: Trichophyton mentagrophytes; assay: Antifungal activity against Trichophyton mentagrophytes after 3 to 4 days by serial plate dilution method
# Rattus norvegicus = assay: Antiinflammatory activity in Wister albino rat assessed as inhibition of carrageenan-induced paw edema at 10 mg/kg, po administered 30 mins before carrageenan treatment measured after 3 hrs by plethysmometric analysis
# Talaromyces marneffei = assay: Antifungal activity against Penicillium marneffei after 3 to 4 days by serial plate dilution method
# Pseudomonas aeruginosa = assay: Antibacterial activity against Pseudomonas aeruginosa ATCC 27853 after 3 to 4 days by serial plate dilution method
# Aspergillus flavus = assay: Antifungal activity against Aspergillus flavus NCIM 524 after 3 to 4 days by serial plate dilution method
# Escherichia coli = assay: Antibacterial activity against Escherichia coli ATCC 25922 after 3 to 4 days by serial plate dilution method
# Staphylococcus aureus = assay: Antibacterial activity against Staphylococcus aureus ATCC 25923 after 3 to 4 days by serial plate dilution method
# Mus musculus [2] = assay: Analgesic activity in Swiss albino mouse assessed as inhibition of heat-induced paw licking or jumping behavior at 10 mg/kg, po administered after 15 sec of heat challenge measured after 30 mins post dose by Eddy's hot plate method; conditions: 0.5 h
# Mus musculus [3] = assay: Analgesic activity in Swiss albino mouse assessed as inhibition of heat-induced paw licking or jumping behavior at 10 mg/kg, po administered after 15 sec of heat challenge measured after 60 mins post dose by Eddy's hot plate method; conditions: 1 h
# Mus musculus [4] = assay: Analgesic activity in Swiss albino mouse assessed as inhibition of heat-induced paw licking or jumping behavior at 10 mg/kg, po administered after 15 sec of heat challenge measured after 90 mins post dose by Eddy's hot plate method; conditions: 1.5 h
Compound,MIC (Klebsiella pneumoniae),MIC (Aspergillus fumigatus),MIC [1],inhibition in vivo at 10 mg/kg (Rattus norvegicus),MIC (Talaromyces marneffei),MIC (Pseudomonas aeruginosa),MIC (Aspergillus flavus),MIC (Escherichia coli),MIC (Staphylococcus aureus),inhibition in vivo at 10 mg/kg (Mus musculus [2]),inhibition in vivo at 10 mg/kg (Mus musculus [3]),inhibition in vivo at 10 mg/kg (Mus musculus [4])
CC(C)Cc1ccc(C(C)c2nn(CN3CCN(c4cccc(Cl)c4)CC3)c(=S)o2)cc1 (configuration not stated),25 µg/mL,6.25 µg/mL,6.25 µg/mL,64.3%,6.25 µg/mL,25 µg/mL,6.25 µg/mL,25 µg/mL,25 µg/mL,–,–,–
CC(C)Cc1ccc(C(C)c2nn(CN3CCN(c4ccc([N+](=O)[O-])cc4)CC3)c(=S)o2)cc1 (configuration not stated),12.5 µg/mL,25 µg/mL,25 µg/mL,75.1%,25 µg/mL,12.5 µg/mL,25 µg/mL,12.5 µg/mL,12.5 µg/mL,30.6%,36.2%,44.8%
CC(C)Cc1ccc(C(C)c2nn(CN3CCN(c4ccc(F)cc4)CC3)c(=S)o2)cc1 (configuration not stated),6.25 µg/mL,6.25 µg/mL,6.25 µg/mL,75.4%,6.25 µg/mL,6.25 µg/mL,6.25 µg/mL,6.25 µg/mL,6.25 µg/mL,32.6%,45%,57%
CCOc1ccccc1N1CCN(Cn2nc(C(C)c3ccc(CC(C)C)cc3)oc2=S)CC1 (configuration not stated),25 µg/mL,12.5 µg/mL,12.5 µg/mL,44.6%,12.5 µg/mL,25 µg/mL,12.5 µg/mL,25 µg/mL,25 µg/mL,–,–,–
COc1ccc(N2CCN(Cn3nc(Cc4ccc(SC)cc4)oc3=S)CC2)cc1,12.5 µg/mL,12.5 µg/mL,12.5 µg/mL,33.7%,12.5 µg/mL,12.5 µg/mL,12.5 µg/mL,12.5 µg/mL,12.5 µg/mL,–,–,–
CSc1ccc(Cc2nn(CN3CCN(c4ccc(Cl)cc4)CC3)c(=S)o2)cc1,6.25 µg/mL,6.25 µg/mL,6.25 µg/mL,71.1%,6.25 µg/mL,6.25 µg/mL,6.25 µg/mL,6.25 µg/mL,6.25 µg/mL,–,–,–
CSc1ccc(Cc2nn(CN3CCN(c4cccc(Cl)c4)CC3)c(=S)o2)cc1,12.5 µg/mL,12.5 µg/mL,12.5 µg/mL,74.7%,12.5 µg/mL,12.5 µg/mL,12.5 µg/mL,12.5 µg/mL,12.5 µg/mL,25.6%,32%,41.2%
CSc1ccc(Cc2nn(CN3CCN(c4ccc([N+](=O)[O-])cc4)CC3)c(=S)o2)cc1,6.25 µg/mL,25 µg/mL,25 µg/mL,56.6%,25 µg/mL,6.25 µg/mL,25 µg/mL,6.25 µg/mL,6.25 µg/mL,–,–,–
CSc1ccc(Cc2nn(CN3CCN(c4ccc(F)cc4)CC3)c(=S)o2)cc1,6.25 µg/mL,6.25 µg/mL,6.25 µg/mL,68.7%,6.25 µg/mL,6.25 µg/mL,6.25 µg/mL,6.25 µg/mL,6.25 µg/mL,–,–,–
CCOc1ccccc1N1CCN(Cn2nc(Cc3ccc(SC)cc3)oc2=S)CC1,12.5 µg/mL,12.5 µg/mL,12.5 µg/mL,42.5%,12.5 µg/mL,12.5 µg/mL,12.5 µg/mL,12.5 µg/mL,12.5 µg/mL,–,–,–
CC(C)Cc1ccc(C(C)c2nn(CN3CCNCC3)c(=S)o2)cc1 (configuration not stated),12.5 µg/mL,12.5 µg/mL,12.5 µg/mL,–,12.5 µg/mL,12.5 µg/mL,12.5 µg/mL,12.5 µg/mL,12.5 µg/mL,–,–,–
CC(C)Cc1ccc(C(C)c2nn(CN3CCN(C)CC3)c(=S)o2)cc1 (configuration not stated),12.5 µg/mL,25 µg/mL,25 µg/mL,–,25 µg/mL,12.5 µg/mL,25 µg/mL,12.5 µg/mL,12.5 µg/mL,–,–,–
CC(C)Cc1ccc(C(C)c2nn(CN3CCCCC3)c(=S)o2)cc1 (configuration not stated),25 µg/mL,25 µg/mL,25 µg/mL,–,25 µg/mL,25 µg/mL,25 µg/mL,25 µg/mL,25 µg/mL,–,–,–
CCOC(=O)C1CCN(Cn2nc(C(C)c3ccc(CC(C)C)cc3)oc2=S)CC1 (configuration not stated),12.5 µg/mL,12.5 µg/mL,12.5 µg/mL,73.9%,12.5 µg/mL,12.5 µg/mL,12.5 µg/mL,12.5 µg/mL,12.5 µg/mL,30.6%,41.8%,55.2%
CC(C)Cc1ccc(C(C)c2nn(CN3CCOCC3)c(=S)o2)cc1 (configuration not stated),6.25 µg/mL,6.25 µg/mL,6.25 µg/mL,69.5%,6.25 µg/mL,6.25 µg/mL,6.25 µg/mL,6.25 µg/mL,6.25 µg/mL,–,–,–
CCOC(=O)C1CCN(Cn2nc(Cc3ccc(SC)cc3)oc2=S)CC1,12.5 µg/mL,12.5 µg/mL,12.5 µg/mL,57.4%,12.5 µg/mL,12.5 µg/mL,12.5 µg/mL,12.5 µg/mL,12.5 µg/mL,–,–,–
CSc1ccc(Cc2nn(CN3CCOCC3)c(=S)o2)cc1,12.5 µg/mL,6.25 µg/mL,6.25 µg/mL,35.2%,6.25 µg/mL,12.5 µg/mL,6.25 µg/mL,12.5 µg/mL,12.5 µg/mL,–,–,–
CSc1ccc(Cc2nn(CN3CCNCC3)c(=S)o2)cc1,12.5 µg/mL,12.5 µg/mL,12.5 µg/mL,–,12.5 µg/mL,12.5 µg/mL,12.5 µg/mL,12.5 µg/mL,12.5 µg/mL,–,–,–
CSc1ccc(Cc2nn(CN3CCN(C)CC3)c(=S)o2)cc1,12.5 µg/mL,25 µg/mL,25 µg/mL,–,25 µg/mL,12.5 µg/mL,25 µg/mL,12.5 µg/mL,12.5 µg/mL,–,–,–
CSc1ccc(Cc2nn(CN3CCCCC3)c(=S)o2)cc1,12.5 µg/mL,25 µg/mL,25 µg/mL,–,25 µg/mL,12.5 µg/mL,25 µg/mL,12.5 µg/mL,12.5 µg/mL,–,–,–
COc1ccc(N2CCN(Cn3nc(C(C)c4ccc(CC(C)C)cc4)oc3=S)CC2)cc1 (configuration not stated),6.25 µg/mL,12.5 µg/mL,12.5 µg/mL,42.6%,12.5 µg/mL,6.25 µg/mL,12.5 µg/mL,6.25 µg/mL,6.25 µg/mL,–,–,–
CC(C)Cc1ccc(C(C)c2nn(CN3CCN(c4ccc(Cl)cc4)CC3)c(=S)o2)cc1 (configuration not stated),12.5 µg/mL,12.5 µg/mL,12.5 µg/mL,76.6%,12.5 µg/mL,12.5 µg/mL,12.5 µg/mL,12.5 µg/mL,12.5 µg/mL,22.8%,28%,35.8%
Cc1cc(C2CCCCC2)n(O)c(=O)c1.NCCO [CICLOPIROX OLAMINE],–,6.25 µg/mL,6.25 µg/mL,–,1.56 µg/mL,–,6.25 µg/mL,–,–,–,–,–
O=C(O)c1cn(C2CC2)c2cc(N3CCNCC3)c(F)cc2c1=O [CIPROFLOXACIN],6.25 µg/mL,–,–,–,–,–,–,–,1.56 µg/mL,–,–,–
O=C(O)Cc1ccccc1Nc1c(Cl)cccc1Cl [DICLOFENAC SODIUM],–,–,–,73.7%,–,–,–,–,–,29.2%,40.8%,53.6%
